The values that follow are results of earlier work, collected in publication PMC9054096 (RSC Advances, 2020).

One data set has as its target T1, Human galectin-4N (Homo sapiens, UniProt P56470).
T1 sequence (P56470 19-150 limits assumed): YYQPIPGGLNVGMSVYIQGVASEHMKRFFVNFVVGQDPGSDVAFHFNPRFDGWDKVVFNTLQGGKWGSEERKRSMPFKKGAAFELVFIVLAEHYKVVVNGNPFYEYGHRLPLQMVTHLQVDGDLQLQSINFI
The settings on record: read-out: Galectin-4N affinity (Kd); reference compound.

The next data set addresses T2, Human galectin-4C (Homo sapiens, UniProt P56470).
T2 sequence (P56470 194-323 limits assumed): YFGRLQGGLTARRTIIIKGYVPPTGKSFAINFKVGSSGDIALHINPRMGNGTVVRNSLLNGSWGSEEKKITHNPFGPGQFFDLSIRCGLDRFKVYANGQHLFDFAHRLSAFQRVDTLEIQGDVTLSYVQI
The settings on record: read-out: Galectin-4C affinity (Kd); reference compound.

In another data set the target is Human galectin-9N (Homo sapiens, UniProt O00182). The settings on record: read-out: Galectin-9N affinity (Kd); reference compound.
Another data set deals with Human galectin-1 (Homo sapiens, UniProt P09382). The settings on record: read-out: Galectin-1 affinity (Kd); reference compound.
The target of the next data set is Human galectin-3 (Homo sapiens, UniProt P17931). The settings on record: read-out: Galectin-3 affinity (Kd); reference compound.
The target in another data set is Human galectin-9C (Homo sapiens, UniProt O00182). The settings on record: read-out: Galectin-9C affinity (Kd); reference compound.
Human galectin-9C, sequence (O00182 227-355 limits assumed): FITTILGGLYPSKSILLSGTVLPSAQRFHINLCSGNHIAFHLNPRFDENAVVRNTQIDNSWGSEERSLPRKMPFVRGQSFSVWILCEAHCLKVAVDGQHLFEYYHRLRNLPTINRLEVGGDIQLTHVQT

Human galectin-3, sequence (P17931 whole entry): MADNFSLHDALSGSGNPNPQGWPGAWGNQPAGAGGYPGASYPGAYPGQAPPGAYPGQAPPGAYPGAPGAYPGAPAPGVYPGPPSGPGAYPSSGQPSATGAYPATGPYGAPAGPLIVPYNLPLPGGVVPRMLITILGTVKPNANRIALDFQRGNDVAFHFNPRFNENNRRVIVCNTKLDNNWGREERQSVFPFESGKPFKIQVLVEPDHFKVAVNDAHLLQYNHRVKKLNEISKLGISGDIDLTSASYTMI
Human galectin-9N, sequence (O00182 17-148 limits assumed): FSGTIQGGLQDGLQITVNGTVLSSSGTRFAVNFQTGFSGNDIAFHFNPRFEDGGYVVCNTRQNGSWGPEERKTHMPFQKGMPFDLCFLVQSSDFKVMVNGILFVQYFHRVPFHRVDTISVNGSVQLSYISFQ
Human galectin-1, sequence (P09382 whole entry): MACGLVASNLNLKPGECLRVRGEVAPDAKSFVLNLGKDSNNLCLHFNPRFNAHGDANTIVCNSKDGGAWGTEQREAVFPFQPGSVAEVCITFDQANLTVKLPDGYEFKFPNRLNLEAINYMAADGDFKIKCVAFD

Take `O=C(O)c1ccc2ccc(CO[C@@H]3[C@@H](O)[C@@H](Sc4ccc(Cl)c(Cl)c4)O[C@H](CO)[C@@H]3O)nc2c1` [Compound 2, 3,4-dichlorophenyl 3-O-(7-carboxy-quinolin-2-yl-methyl)-1-thio-α-D-galactopyranoside]: the Kd is 43 ± 7.1 µM at Human galectin-4N; 43 ± 5.7 µM at Human galectin-4C; 2.06 ± 0.09 µM at Human galectin-9N; 48 ± 4.4 µM at Human galectin-1; 1.27 ± 0.07 µM at Human galectin-3; 14 ± 1.3 µM on Human galectin-9C.
